Measured values as given in paper PMC6522510 (Nature Communications, 2019).
Structures can show the parent of a compound that is named as a salt. Where two headings read alike, the source gives them in different places. Numbered stars: 1 amine (or outer) side, 2 acyl side, 3 side chain; on linkers, the order of the positions; unused ones are H or OH. Peptide text beside a SMILES is read from it. CO = O=C([*:1])[*:2]

How the values were obtained:
Design in all cases: species or system AML cell lines (8); Primary HTS, single concentration about 10 uM, Cell Titer Glo viability; log10 luminescence, per cent inhibition relative to cycloheximide control
Conditions in all cases: 72 h, relative to cycloheximide control, log10 luminescence, inhibitor
MOLM-13 = tested on: MOLM-13
CMK = tested on: CMK
CHRF288-11 = tested on: CHRF288-11
CMS = tested on: CMS
M07e = tested on: M07e
MV4-11 = tested on: MV4-11
U937 = tested on: U937
ML-2 = tested on: ML-2

Structure (SMILES)	MOLM-13 %inh (MOLM-13) [%]	CMK %inh (CMK) [%]	CHRF288-11 %inh (CHRF288-11) [%]	CMS %inh (CMS) [%]	M07e %inh (M07e) [%]	MV4-11 %inh (MV4-11) [%]	U937 %inh (U937) [%]	ML-2 %inh (ML-2) [%]	MOLM-13 %inh (MOLM-13; MOLM-13 %inh, 10 µM) [%]	CMK %inh (CMK; CMK %inh, 10 µM) [%]	CHRF288-11 %inh (CHRF288-11; CHRF288-11 %inh, 10 µM) [%]	CMS %inh (CMS; CMS %inh, 10 µM) [%]	M07e %inh (M07e; M07e %inh, 10 µM) [%]	MV4-11 %inh (MV4-11; MV4-11 %inh, 10 µM) [%]	U937 %inh (U937; U937 %inh, 10 µM) [%]	ML-2 %inh (ML-2; ML-2 %inh, 10 µM) [%]
CC(C)[C@H](NC(=O)[C@H](CCCNC(=N)N)NC(=O)N[C@@H](Cc1ccccc1)C(=O)O)C(=O)N[C@H](C=O)CCCNC(=N)N [SJ000772410-1, ANTIPAIN, DIHYDROCHLORIDE] ({Phe-CO}-Arg-Val-Arg-aldehyde)	-3.916	-5.865	4.85	2.317	-0.5062	-1.834	-3.748	0.8211								
CNC(=O)[C@@H](NC(=O)[C@H](CC(C)C)[C@H](O)C(=O)NO)C(C)(C)C [SJ000772411-1]									2.673	-3.077	14.63	-1.756	-0.5084	-4.036	2.038	1.691
CNC(=O)[C@@H](NC(=O)[C@H](CC(C)C)[C@H](O)C(=O)NO)C(C)(C)C [SJ000772411-2]									10.77	5.663	28.21	3.256	4.087	3.499	3.1	2.823
COC(=O)[C@H](CC(C)C)NC(=O)[C@@H](O)[C@H](N)Cc1ccccc1 [SJ000772416-1, BESTATIN METHYL ESTER]	-1.654	1.43	5.118	2.851	3.275	8.922	22.26	3.75								
CC(C)[C@@H]1C(=O)N(S(C)(=O)=O)[C@@H]2CCN(C(=O)/C=C/CN3CCCCC3)[C@H]21 [SJ000772418-1, GW 311616 HYDROCHLORIDE]	-2.354	-2.728	12.76	4.399	1.212	3.043	-1.402	0.5681								
C=CCNC(=O)c1cc([N+](=O)[O-])cc2c(=O)[nH]c(Nc3ccc(Cl)c(Cl)c3)nc12 [SJ000772422-1, AZ 10417808]	0.5205	-3.629	0.7864	0.1501	3.044	3.564	-1.321	0.702								
COC[C@@H](NC(=O)[C@@H](NC(=O)[C@H](CCCc1ccc(-c2ccccc2)c(C)c1)CC(=O)O)C(C)(C)C)c1ccccc1 [SJ000772423-1, UK 370106]	2.493	-0.5196	6.021	4.79	2.4	2.629	2.263	0.2215								
NC(N)=NCCS[C@@H](CC(=O)O)C(=O)O [SJ000772425-1, GEMSA]	0.138	-1.464	-3.397	-0.9686	1.501	3.627	0.2934	0.5506								
COc1cc(C(C)C)c2c(c1)S(=O)(=O)N(COc1cc(=O)n3cccc(OCCN4CCCCC4)c3n1)C2=O [SJ000772427-1, SSR 69071]	1.802	0.212	-3.004	3.665	1.75	4.165	2.526	-0.6502								
CC(C)C[C@H](N)[C@](O)(Cc1cnc[nH]1)C(=O)O [SJ000772431-1, LEUHISTIN]	0.702	-1.024	4.998	1.294	1.038	3.279	2.882	5.093								
O=C(O)C(Cc1ccc2c(c1)oc1ccccc12)NCP(=O)(O)O (stereo not drawn) [SJ000772433-1, CGS 35066]	2.239	-1.634	0.3778	-0.6949	2.079	3.69	0.4141	5.201								
C[C@H](NC(=O)Cc1cc(F)cc(F)c1)C(=O)N[C@H](C(=O)OC(C)(C)C)c1ccccc1 [SJ000772434-1, DAPT | DAPT (GSI-IX)]	2.225	-0.675	2.669	0.2641	1.132	5.48	0.2025	5.016								
NC(CCC(=O)NOC(=O)c1ccccc1)C(=O)N1CCCC1 (stereo not drawn) [SJ000773150-1]	1.337	-2.389	-3.643	-1.088	3.014	-0.09979	-0.8595	1.208								
Cc1c[nH]c(/C=C2\C(=O)Nc3ccccc32)c1CCC(=O)O [SJ000773151-1, SU 5402 |]	64.04	3.453	8.965	2.629	7.079	45.76	-1.966	-0.6671								
NC(=O)c1cc(-c2ccc(Cl)cc2)cc(-c2ccc(S(N)(=O)=O)cc2)c1N [SJ000773162-1, IKK INHIBITOR XII]	3.294	7.074	5.412	0.8646	-0.482	6.438	5.575	2.717								
O=C(N/N=C/c1coc2ccccc2c1=O)c1cccnc1 [SJ000773164-1, STAT5 INHIBITOR]	0.6226	0.4302	2.609	-3.081	-2.508	5.196	1.718	0.5689								
CCOC(=O)c1c(C)[nH]c(/C=C2\C(=O)Nc3ccccc32)c1C [SJ000773165-1, VEGFR2 KINASE INHIBITOR I]	14.97	1.896	3.3	-2.877	-1.094	4.438	-1.551	-1.978								
O=C1Cc2c([nH]c3ccc(Br)cc23)-c2ncccc2N1 [SJ000773177-1, 1-AZAKENPAULLONE]	1.556	-2.288	3.099	11.6	0.4716	9.942	4.514	3.703								
Nc1[nH]nc2nnc(-c3c(-c4ccccc4)nn4ccccc34)cc12 [SJ000773182-1, FR 180204]	10.92	2.552	4.206	0.8706	4.808	11.54	0.5636	1.644								
O=C(O)c1cc2cc(O)c(O)cc2c(C(=O)c2ccc(O)c(O)c2)n1 [SJ000773184-1, NBI-31772]	2.784	20.66	-3.882	0.1786	0.05281	0.9533	2.592	4.963								
N#Cc1cnc2cnc(NCc3cccnc3)cc2c1Nc1ccc(F)c(Cl)c1 [SJ000773185-1, TPL2 KINASE INHIBITOR]	88.46	12.32	6.987	-1.042	3.597	3.7	7.932	-0.1066								
